Source: patent US9738634B2, “Heterocyclic amide compound and herbicide” (SYNGENTA PARTICIPATIONS AG, priority 2013, dated 2017)

Key:
Type in all cases: in vivo
[1] = tested on: barnyard grass; assay: Test Example 1: weedkilling efficacy, preemergent weed treatment in the submerged state; A: barnyard grass; conditions: treatment dosage 252 g/ha
In short: (§1)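 Pots of alluvial soil flooded 4 cm deep, sown with barnyard grass, bulrush and oval-leafed pondweed and transplanted with 2.5-leaf rice. Emulsified compound applied to the water surface on sowing day at stated g/ha; greenhouse 25–30 °C, effects assessed 3 weeks after treatment.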

[2] = tested on: bulrush; assay: Test Example 1: weedkilling efficacy, preemergent weed treatment in the submerged state; B: bulrush; conditions: treatment dosage 252 g/ha
In short: as §1

[3] = tested on: oval-leafed pondweed; assay: Test Example 1: weedkilling efficacy, preemergent weed treatment in the submerged state; C: oval-leafed pondweed; conditions: treatment dosage 252 g/ha
In short: as §1

[4] = tested on: transplanted rice; assay: Test Example 1: preemergent weed treatment in the submerged state, effect on crop; a: transplanted rice; conditions: treatment dosage 252 g/ha
In short: as §1

[5] = tested on: barnyard grass; assay: Test Example 2: weedkilling efficacy, growth period weed treatment in the submerged state; A: barnyard grass; conditions: treatment dosage 252 g/ha
In short: (§2)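 Barnyard grass, bulrush and oval-leafed pondweed sown in alluvial soil under 4 cm flooding, greenhouse 25 to 30° C. At 1-2 leaf stage, water-diluted emulsion applied to the water surface at stated g/ha dosages; effects scored 3 weeks later.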

[6] = tested on: bulrush; assay: Test Example 2: weedkilling efficacy, growth period weed treatment in the submerged state; B: bulrush; conditions: treatment dosage 252 g/ha
In short: as §2

[7] = tested on: oval-leafed pondweed; assay: Test Example 2: weedkilling efficacy, growth period weed treatment in the submerged state; C: oval-leafed pondweed; conditions: treatment dosage 252 g/ha
In short: as §2

[8] = tested on: crabgrass; assay: Test Example 3: weedkilling efficacy through soil treatment; D: crabgrass; conditions: treatment dosage 315 g/ha
In short: (§3)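 Crop and weed responses were judged three weeks after a uniform surface spray of the water-diluted emulsion at the given g/ha rate. Seeds sat beneath about 1.5 cm of sterilized diluvial soil, and boxes stood in a greenhouse at 25 to 30° C.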

[9] = tested on: green foxtail; assay: Test Example 3: weedkilling efficacy through soil treatment; E: green foxtail; conditions: treatment dosage 315 g/ha
In short: as §3

[10] = tested on: black-grass; assay: Test Example 3: weedkilling efficacy through soil treatment; H: black-grass; conditions: treatment dosage 315 g/ha
In short: as §3

[11] = tested on: Italian ryegrass; assay: Test Example 3: weedkilling efficacy through soil treatment; I: Italian ryegrass; conditions: treatment dosage 315 g/ha
In short: as §3

[12] = tested on: Indian mallow; assay: Test Example 3: weedkilling efficacy through soil treatment; K: Indian mallow; conditions: treatment dosage 315 g/ha
In short: as §3

[13] = tested on: redroot pigweed; assay: Test Example 3: weedkilling efficacy through soil treatment; L: redroot pigweed; conditions: treatment dosage 315 g/ha
In short: as §3

[14] = tested on: fig-leafed goosefoot; assay: Test Example 3: weedkilling efficacy through soil treatment; M: fig-leafed goosefoot; conditions: treatment dosage 315 g/ha
In short: as §3

[15] = tested on: chickweed; assay: Test Example 3: weedkilling efficacy through soil treatment; N: chickweed; conditions: treatment dosage 315 g/ha
In short: as §3

[16] = tested on: birds-eye speedwell; assay: Test Example 3: weedkilling efficacy through soil treatment; p: birds-eye speedwell; conditions: treatment dosage 315 g/ha
In short: as §3

[17] = tested on: directly sown rice; assay: Test Example 3: soil treatment, effect on crop; b: directly sown rice; conditions: treatment dosage 315 g/ha
In short: as §3

[18] = tested on: corn; assay: Test Example 3: soil treatment, effect on crop; c: corn; conditions: treatment dosage 315 g/ha
In short: as §3

[19] = tested on: soybean; assay: Test Example 3: soil treatment, effect on crop; d: soybean; conditions: treatment dosage 315 g/ha
In short: as §3

[20] = tested on: wheat; assay: Test Example 3: soil treatment, effect on crop; e: wheat; conditions: treatment dosage 315 g/ha
In short: as §3

[21] = tested on: beet; assay: Test Example 3: soil treatment, effect on crop; f: beet; conditions: treatment dosage 315 g/ha
In short: as §3

[22] = tested on: crabgrass; assay: Test Example 4: weedkilling efficacy by foliar treatment; D: crabgrass; conditions: treatment dosage 315 g/ha
In short: (§4)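 Seeds are spot-sown into sterilized diluvial soil and covered with about 1.5 cm of soil. After 14 days' greenhouse growth at 25 to 30° C, plants are sprayed on stems and leaves with diluted emulsion at the stated g/ha rate, then scored at 3 weeks.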

[23] = tested on: green foxtail; assay: Test Example 4: weedkilling efficacy by foliar treatment; E: green foxtail; conditions: treatment dosage 315 g/ha
In short: as §4

[24] = tested on: black-grass; assay: Test Example 4: weedkilling efficacy by foliar treatment; H: black-grass; conditions: treatment dosage 315 g/ha
In short: as §4

[25] = tested on: Italian ryegrass; assay: Test Example 4: weedkilling efficacy by foliar treatment; I: Italian ryegrass; conditions: treatment dosage 315 g/ha
In short: as §4

[26] = tested on: Indian mallow; assay: Test Example 4: weedkilling efficacy by foliar treatment; K: Indian mallow; conditions: treatment dosage 315 g/ha
In short: as §4

[27] = tested on: redroot pigweed; assay: Test Example 4: weedkilling efficacy by foliar treatment; L: redroot pigweed; conditions: treatment dosage 315 g/ha
In short: as §4

[28] = tested on: fig-leafed goosefoot; assay: Test Example 4: weedkilling efficacy by foliar treatment; M: fig-leafed goosefoot; conditions: treatment dosage 315 g/ha
In short: as §4

[29] = tested on: chickweed; assay: Test Example 4: weedkilling efficacy by foliar treatment; N: chickweed; conditions: treatment dosage 315 g/ha
In short: as §4

[30] = tested on: catchweed; assay: Test Example 4: weedkilling efficacy by foliar treatment; O: catchweed; conditions: treatment dosage 315 g/ha
In short: as §4

[31] = tested on: birds-eye speedwell; assay: Test Example 4: weedkilling efficacy by foliar treatment; p: birds-eye speedwell; conditions: treatment dosage 315 g/ha
In short: as §4

[32] = tested on: directly sown rice; assay: Test Example 4: foliar treatment, effect on crop; b: directly sown rice; conditions: treatment dosage 315 g/ha
In short: as §4

[33] = tested on: corn; assay: Test Example 4: foliar treatment, effect on crop; c: corn; conditions: treatment dosage 315 g/ha
In short: as §4

[34] = tested on: soybean; assay: Test Example 4: foliar treatment, effect on crop; d: soybean; conditions: treatment dosage 315 g/ha
In short: as §4

[35] = tested on: wheat; assay: Test Example 4: foliar treatment, effect on crop; e: wheat; conditions: treatment dosage 315 g/ha
In short: as §4

[36] = tested on: beet; assay: Test Example 4: foliar treatment, effect on crop; f: beet; conditions: treatment dosage 315 g/ha
In short: as §4

Structure (SMILES)	A (barnyard grass) weedkilling efficacy grade [1]	B (bulrush) weedkilling efficacy grade [2]	C (oval-leafed pondweed) weedkilling efficacy grade [3]	a (transplanted rice) effect on crop grade [4]	A (barnyard grass) weedkilling efficacy grade [5]	B (bulrush) weedkilling efficacy grade [6]	C (oval-leafed pondweed) weedkilling efficacy grade [7]	D (crabgrass) weedkilling efficacy grade [8]	E (green foxtail) weedkilling efficacy grade [9]	H (black-grass) weedkilling efficacy grade [10]	I (Italian ryegrass) weedkilling efficacy grade [11]	K (Indian mallow) weedkilling efficacy grade [12]	L (redroot pigweed) weedkilling efficacy grade [13]	M (fig-leafed goosefoot) weedkilling efficacy grade [14]	N (chickweed) weedkilling efficacy grade [15]	P (birds-eye speedwell) weedkilling efficacy grade [16]	b (directly sown rice) effect on crop grade [17]	c (corn) effect on crop grade [18]	d (soybean) effect on crop grade [19]	e (wheat) effect on crop grade [20]	other results
CC1=C(c2ccccc2)C(=O)N(C(C)(C)C(=O)Nc2cccc(Cl)n2)CO1 [B-2-29]	5 (weed kill ratio 90% or more, (practically complete withering))	5 (weed kill ratio 90% or more, (practically complete withering))	5 (weed kill ratio 90% or more, (practically complete withering))	0 (weed kill ratio 5% or less (practically no effect))	5 (weed kill ratio 90% or more, (practically complete withering))	5 (weed kill ratio 90% or more, (practically complete withering))	5 (weed kill ratio 90% or more, (practically complete withering))	5 (weed kill ratio 90% or more, (practically complete withering))	5 (weed kill ratio 90% or more, (practically complete withering))	5 (weed kill ratio 90% or more, (practically complete withering))	5 (weed kill ratio 90% or more, (practically complete withering))	4 (weed kill ratio 70% or more, less than 90%)	4 (weed kill ratio 70% or more, less than 90%)	5 (weed kill ratio 90% or more, (practically complete withering))	5 (weed kill ratio 90% or more, (practically complete withering))	5 (weed kill ratio 90% or more, (practically complete withering))	5 (weed kill ratio 90% or more, (practically complete withering))	0 (weed kill ratio 5% or less (practically no effect))	3 (weed kill ratio 40% or more, less than 70%)	5 (weed kill ratio 90% or more, (practically complete withering))	f (beet) effect on crop grade [21]: 5 (weed kill ratio 90% or more, (practically complete withering)); D (crabgrass) weedkilling efficacy grade [22]: 5 (weed kill ratio 90% or more, (practically complete withering)); E (green foxtail) weedkilling efficacy grade [23]: 5 (weed kill ratio 90% or more, (practically complete withering)); H (black-grass) weedkilling efficacy grade [24]: 5 (weed kill ratio 90% or more, (practically complete withering)); I (Italian ryegrass) weedkilling efficacy grade [25]: 5 (weed kill ratio 90% or more, (practically complete withering)); K (Indian mallow) weedkilling efficacy grade [26]: 5 (weed kill ratio 90% or more, (practically complete withering)); L (redroot pigweed) weedkilling efficacy grade [27]: 5 (weed kill ratio 90% or more, (practically complete withering)); M (fig-leafed goosefoot) weedkilling efficacy grade [28]: 4 (weed kill ratio 70% or more, less than 90%); N (chickweed) weedkilling efficacy grade [29]: 5 (weed kill ratio 90% or more, (practically complete withering)); O (catchweed) weedkilling efficacy grade [30]: 4 (weed kill ratio 70% or more, less than 90%); P (birds-eye speedwell) weedkilling efficacy grade [31]: 4 (weed kill ratio 70% or more, less than 90%); b (directly sown rice) effect on crop grade [32]: 5 (weed kill ratio 90% or more, (practically complete withering)); c (corn) effect on crop grade [33]: 4 (weed kill ratio 70% or more, less than 90%); d (soybean) effect on crop grade [34]: 5 (weed kill ratio 90% or more, (practically complete withering)); e (wheat) effect on crop grade [35]: 5 (weed kill ratio 90% or more, (practically complete withering)); f (beet) effect on crop grade [36]: 4 (weed kill ratio 70% or more, less than 90%)
CC1=C(c2ccccc2)C(=O)N(C(C)(C)C(=O)Nc2cccc(Br)n2)CO1 [B-2-31]	5 (weed kill ratio 90% or more, (practically complete withering))	5 (weed kill ratio 90% or more, (practically complete withering))	5 (weed kill ratio 90% or more, (practically complete withering))	0 (weed kill ratio 5% or less (practically no effect))	5 (weed kill ratio 90% or more, (practically complete withering))	5 (weed kill ratio 90% or more, (practically complete withering))	0 (weed kill ratio 5% or less (practically no effect))	5 (weed kill ratio 90% or more, (practically complete withering))	5 (weed kill ratio 90% or more, (practically complete withering))	5 (weed kill ratio 90% or more, (practically complete withering))	5 (weed kill ratio 90% or more, (practically complete withering))	0 (weed kill ratio 5% or less (practically no effect))	5 (weed kill ratio 90% or more, (practically complete withering))	4 (weed kill ratio 70% or more, less than 90%)	5 (weed kill ratio 90% or more, (practically complete withering))	5 (weed kill ratio 90% or more, (practically complete withering))	5 (weed kill ratio 90% or more, (practically complete withering))	0 (weed kill ratio 5% or less (practically no effect))	0 (weed kill ratio 5% or less (practically no effect))	5 (weed kill ratio 90% or more, (practically complete withering))	f (beet) effect on crop grade [21]: 5 (weed kill ratio 90% or more, (practically complete withering)); D (crabgrass) weedkilling efficacy grade [22]: 5 (weed kill ratio 90% or more, (practically complete withering)); E (green foxtail) weedkilling efficacy grade [23]: 5 (weed kill ratio 90% or more, (practically complete withering)); H (black-grass) weedkilling efficacy grade [24]: 5 (weed kill ratio 90% or more, (practically complete withering)); I (Italian ryegrass) weedkilling efficacy grade [25]: 5 (weed kill ratio 90% or more, (practically complete withering)); K (Indian mallow) weedkilling efficacy grade [26]: 5 (weed kill ratio 90% or more, (practically complete withering)); L (redroot pigweed) weedkilling efficacy grade [27]: 5 (weed kill ratio 90% or more, (practically complete withering)); M (fig-leafed goosefoot) weedkilling efficacy grade [28]: 4 (weed kill ratio 70% or more, less than 90%); N (chickweed) weedkilling efficacy grade [29]: 5 (weed kill ratio 90% or more, (practically complete withering)); O (catchweed) weedkilling efficacy grade [30]: 3 (weed kill ratio 40% or more, less than 70%); P (birds-eye speedwell) weedkilling efficacy grade [31]: 4 (weed kill ratio 70% or more, less than 90%); b (directly sown rice) effect on crop grade [32]: 5 (weed kill ratio 90% or more, (practically complete withering)); c (corn) effect on crop grade [33]: 4 (weed kill ratio 70% or more, less than 90%); d (soybean) effect on crop grade [34]: 5 (weed kill ratio 90% or more, (practically complete withering)); e (wheat) effect on crop grade [35]: 5 (weed kill ratio 90% or more, (practically complete withering)); f (beet) effect on crop grade [36]: 4 (weed kill ratio 70% or more, less than 90%)
